Test results: publication PMC5364125 (EJNMMI Research, 2017)
Values joined by “and” are separate entries in the source; they are usually repeats but may differ in a detail not shown here. Identical values can stand only once. Like-named read-outs stand apart in the source and are kept apart here.

What was measured:
[1] = test system: TSPO; conditions: cited from earlier work
[2] = parameters: method as in PMID 25616581; conditions: cited from earlier work
[3] = test system: TSPO; conditions: human subjects; cited from earlier work
[4] = HPLC metabolite analysis of plasma and urine; assay type: in vivo, human
Procedure: (§1) PET scanning was performed using a Discovery PET/computed tomography (CT) 710 scanner (GE Healthcare, Milwaukee, WI) in 3D mode. This scanner has an axial field of view of 15.7 cm, a spatial resolution of 4.5 mm full width at half maximum (FWHM), and a Z-axis resolution of 4.8 mm FWHM. We acquired 47 slices. […] Arterial blood (0.5 mL each) was sampled at 10, 20, 30, 40, 50, 60, 70, 80, 90, 100, 110, 120, 135, 150, and 180 s, as well as at 5, 7, 10, 15, 20, 30, 40, 50, 60, 75, and 90 min. The whole blood and separated plasma were weighed, and radioactivity was measured with a NaI (Tl) well scintillation counter (BeWell Model-QS03 F/B; Molecular Imaging Labo, Suita, Japan). To analyze the labeled metabolites, 1.5 mL additional blood was obtained at 3, 10, 20, 30, 40, and 60 min. After the PET scan, urine was obtained from each subject, and radioactivity was measured.

[5] = test system: TSPO; parameters: method as in PMID 25771904; conditions: herpes encephalitis rat model; cited from earlier work
[6] = test system: TSPO; assay: Dynamic brain PET, V T by two-tissue compartment model; assay type: in vivo, human
Procedure: as §1
The dynamic images were post-smoothed with a 4-mm FWHM Gaussian filter. The data were reconstructed in 128 × 128 × 47 voxels, and the voxel size was 2 × 2 × 3.27 mm. Partially overlapping circular regions of interests (ROIs) that were 10 mm in diameter were placed on the frontal, temporal, parietal, occipital, and cerebellar cortices, thalamus, putamen, and head of the caudate nucleus with reference to the co-registered MRI. TACs for these ROIs were calculated as becquerel per milliliter or as standardized uptake value (SUV): (activity/ml tissue)/(injected activity/g body weight). […] The goodness of fit by the two-model analysis was evaluated using AIC.

[7] = Description: The protocol for investigating radiation dosimetry in human subjects using whole-body imaging was essentially the same as that reported previously.
Whole-body PET/CT scans were obtained using a Discovery 710 PET/CT scanner (GE Healthcare) in 3D mode. LD-CT was used for attenuation correction of the PET emission scan. […] Then, 128-min scans (18 frames, 13 bed positions per frame, overlap of 23 of 47 slices per bed, 15 s/bed × four frames, 30 s/bed × 12 frames, and 60 s/bed × two frames) from the top of the head to mid-thigh were performed. Images were reconstructed using a 3D-ordered subset expectation maximization algorithm (subset, 24; iteration, 2) with a 6.4-mm Gaussian filter.
ROIs were manually placed over […] that could be identified on PET or LD-CT: adrenals, brain, gallbladder, small intestine, stomach, heart wall, kidneys, liver, lungs, pancreas, bone marrow (thoracic and lumbar vertebrae), spleen, testes, thymus, thyroid, and urinary bladder. The decay-uncorrected and decay-corrected TACs of organs were calculated as the percent injected dose (%ID) per milliliter and the %ID per organ. The volume of bone marrow, in which only part of the organ could be measured, was substituted by the volume that was calculated from the mass of red marrow in the adult male phantom (1.12 kg for 73.7 kg of body weight) adjusted by the subject’s body weight and 1.04 g/mL as the specific gravity. The normalized number of disintegrations (MBq-h/MBq administered) for each source organ is equal to the area under the time course of decay-uncorrected curve (%ID/mL) multiplied by the volume of the organ ROI. The area under the time course curve was calculated by summing the area from time zero to the endpoint of the scan and the area from the endpoint of the scan to infinity. The former area was calculated by trapezoidal integration. The latter area was calculated by integration of radioactive decay from the endpoint.
The absorbed doses in 25 target organs of the adult male phantom were estimated from the normalized number of disintegrations of source organs by implementing the Medical Internal Radiation Dose method using OLINDA/EXM (Vanderbilt University). The effective dose was also calculated by OLINDA/EXM using the methodology described in International Commission on Radiological Protection Publication 60 [40].

[8] = test system: TSPO; parameters: method as in PMID 25616581; conditions: 6-hydroxydopamine-injured striatum; cited from earlier work
[9] = estimated from murine distribution data; cited from earlier work
[10] = parameters: method as in PMID 27329083; conditions: rats; cited from earlier work
[11] = parameters: method as in PMID 27329083; conditions: cited from earlier work
[12] = two-tissue compartment model, typical subjects n = 4

COc1ccccc1CN(C(C)=O)c1cnccc1Oc1ccccc1 [PBR28]
relative TSPO binding affinity to (R)-PK11195 [1]: 2–5 folds

CCN(CC)C(=O)Cc1c(-c2ccc(OCCF)cc2)nn2c(C)cc(C)nc12 [DPA-714]
relative TSPO binding affinity to (R)-PK11195 [1]: 1.3 fold

CC[C@@H](C)N(C)C(=O)c1cc2ccccc2c(-c2ccccc2Cl)n1 [(R)-PK11195, reference compound]
logP [2]: 2.54

CC[C@@H](C)N([11CH3])C(=O)c1cc2ccccc2c(-c2ccccc2Cl)n1 [(R)-[^11C]PK11195]
V T caudate [3]: 0.3 ± 0.1
V T cerebellum [3]: 0.3 ± 0.1
V T frontal cortex [3]: 0.3 ± 0.1
V T parietal cortex [3]: 0.4 ± 0.1
V T putamen [3]: 0.3 ± 0.1
V T thalamus [3]: 0.4 ± 0.1

CCCN(CCC)C(=O)Cc1c(-c2ccc(O[11CH3])cc2)nc2c(Cl)cc(Cl)cn12 [[^11C]CB184, N,N-di-n-propyl-2-[2-(4-[^11C]methoxyphenyl)-6,8-dichloroimidazol[1,2-a]pyridine-3-yl]acetamide]
Percentage of radioactivity in plasma ([4]; 3 min after intravenous injection of [^11C]CB184, n = 5): 96.1 ± 2.7%
Percentage of radioactivity in plasma ([4]; 10 min after intravenous injection of [^11C]CB184, n = 5): 83.8 ± 8.9%
Percentage of radioactivity in plasma ([4]; 20 min after intravenous injection of [^11C]CB184, n = 5): 61.6 ± 8.0%
Percentage of radioactivity in plasma ([4]; 30 min after intravenous injection of [^11C]CB184, n = 5): 52.9 ± 4.9%
Percentage of radioactivity in plasma ([4]; 40 min after intravenous injection of [^11C]CB184, n = 5): 47.0 ± 5.0%
parent radioligand in voided urine ([4]; HPLC of voided urine): not detected
broad hydrophilic metabolites in urine ([4]; HPLC of voided urine, n = 3): 99.4% ± 0.6
total injected radioactivity recovered in urine ([4]; approximately 100 min post-injection): 0.3%
radioactivity voided into urine, of the injected activity ([4]; at 111 ± 17 min, n = 8): 0.3% ± 0.0
regional uptake into inflamed areas compared with (R)-[^11C]PK11195 [5]: higher
time of peak radioactivity in all gray matter regions ([6]; after intravenous injection, typical subjects n = 4): about 5 min
V T values relative to those of (R)-[^11C]PK11195 ([6]; comparison with ref 15 values): 10 times
V T caudate [6, 12]: 3.2 ± 0.1 mL/cm^3
V T cerebellum [6, 12]: 4.4 ± 0.2 mL/cm^3
V T frontal cortex [6, 12]: 4.0 ± 0.2 mL/cm^3
V T occipital cortex [6, 12]: 4.3 ± 0.2 mL/cm^3 and 4.3 ± 0.5 mL/cm^3
V T parietal cortex [6, 12]: 3.9 ± 0.3 mL/cm^3
V T putamen [6, 12]: 4.0 ± 0.2 mL/cm^3
V T temporal cortex [6, 12]: 3.9 ± 0.4 mL/cm^3
V T thalamus [6, 12]: 5.1 ± 0.4 mL/cm^3
radioactivity voided into urine, of the injected activity ([7]; at 132 ± 0 min, n = 3): 0.3% ± 0
lungs radioactivity, initial time point ([7]; at 3.3 min, one subject): 25 %ID
lungs uptake ([7]; first frame): 25 % injected activity
Absorbed dose, Adrenals ([7]; healthy male subjects n = 3): 4.6 ± 0.9 μGy/MBq
Absorbed dose, Brain ([7]; healthy male subjects n = 3): 4.0 ± 0.3 μGy/MBq
Absorbed dose, Breasts ([7]; healthy male subjects n = 3): 2.2 ± 0.0 μGy/MBq
Absorbed dose, Gallbladder wall ([7]; healthy male subjects n = 3): 5.4 ± 0.4 μGy/MBq
Absorbed dose, Heart wall ([7]; healthy male subjects n = 3): 12.8 ± 0.5 μGy/MBq
Absorbed dose, Kidneys ([7]; healthy male subjects n = 3): 21.0 ± 0.5 μGy/MBq
Absorbed dose, Liver ([7]; healthy male subjects n = 3): 8.3 ± 0.9 μGy/MBq
Absorbed dose, Lower large intestine wall ([7]; healthy male subjects n = 3): 2.3 ± 0.1 μGy/MBq
Absorbed dose, Lungs ([7]; healthy male subjects n = 3): 16.8 ± 2.7 μGy/MBq
Absorbed dose, Muscle ([7]; healthy male subjects n = 3): 2.2 ± 0.1 μGy/MBq
Absorbed dose, Osteogenic cells ([7]; healthy male subjects n = 3): 3.6 ± 0.1 μGy/MBq
Absorbed dose, Ovaries ([7]; healthy male subjects n = 3): 2.5 ± 0.1 μGy/MBq
Absorbed dose, Pancreas ([7]; healthy male subjects n = 3): 16.5 ± 2.2 μGy/MBq
Absorbed dose, Red marrow ([7]; healthy male subjects n = 3): 3.2 ± 0.1 μGy/MBq
Absorbed dose, Skin ([7]; healthy male subjects n = 3): 1.7 ± 0.1 μGy/MBq
Absorbed dose, Small intestine ([7]; healthy male subjects n = 3): 5.4 ± 0.9 μGy/MBq
Absorbed dose, Spleen ([7]; healthy male subjects n = 3): 16.6 ± 6.6 μGy/MBq
Absorbed dose, Stomach wall ([7]; healthy male subjects n = 3): 4.5 ± 0.9 μGy/MBq
Absorbed dose, Testes ([7]; healthy male subjects n = 3): 3.6 ± 0.7 μGy/MBq
Absorbed dose, Thymus ([7]; healthy male subjects n = 3): 2.1 ± 0.0 μGy/MBq
Absorbed dose, Thyroid ([7]; healthy male subjects n = 3): 12.0 ± 3.9 μGy/MBq
Absorbed dose, Total body ([7]; healthy male subjects n = 3): 2.8 ± 0.0 μGy/MBq
Absorbed dose, Upper large intestine wall ([7]; healthy male subjects n = 3): 2.8 ± 0.1 μGy/MBq
Absorbed dose, Urinary bladder wall ([7]; healthy male subjects n = 3): 2.1 ± 0.1 μGy/MBq
Absorbed dose, Uterus ([7]; healthy male subjects n = 3): 2.5 ± 0.1 μGy/MBq
Effective dose ([7]; healthy male subjects n = 3): 5.9 ± 0.6 μSv/MBq
lungs uptake ([7]; last frame): 4.2 % injected activity
Normalized number of disintegrations, Adrenals ([7]; mean ± SD, n = 3): 1.3E-04 ± 5.7E-05 (9.5E-05 – 2.0E-04) MBq-h/MBq administered
Normalized number of disintegrations, Brain ([7]; mean ± SD, n = 3): 1.6E-02 ± 1.3E-03 (1.5E-02 – 1.7E-02) MBq-h/MBq administered
Normalized number of disintegrations, Gallbladder contents ([7]; mean ± SD, n = 3): 8.6E-04 ± 2.3E-04 (7.1E-04 – 1.1E-03) MBq-h/MBq administered
Normalized number of disintegrations, Heart wall ([7]; mean ± SD, n = 3): 1.3E-02 ± 6.2E-04 (1.3E-02 – 1.4E-02) MBq-h/MBq administered
Normalized number of disintegrations, Kidneys ([7]; mean ± SD, n = 3): 2.2E-02 ± 4.7E-04 (2.2E-02 – 2.2E-02) MBq-h/MBq administered
Normalized number of disintegrations, Liver ([7]; mean ± SD, n = 3): 4.2E-02 ± 5.4E-03 (3.8E-02 – 4.8E-02) MBq-h/MBq administered
Normalized number of disintegrations, Lungs ([7]; mean ± SD, n = 3): 6.2E-02 ± 1.1E-02 (5.1E-02 – 7.2E-02) MBq-h/MBq administered
Normalized number of disintegrations, Pancreas ([7]; mean ± SD, n = 3): 5.2E-03 ± 7.6E-04 (4.5E-03 – 6.0E-03) MBq-h/MBq administered
Normalized number of disintegrations, Red marrow ([7]; mean ± SD, n = 3): 1.0E-02 ± 1.7E-03 (8.8E-03 – 1.2E-02) MBq-h/MBq administered
Normalized number of disintegrations, Remainder ([7]; mean ± SD, n = 3): 2.9E-01 ± 2.0E-02 (2.8E-01 – 3.2E-01) MBq-h/MBq administered
Normalized number of disintegrations, Small intestine ([7]; mean ± SD, n = 3): 1.0E-02 ± 2.9E-03 (6.9E-03 – 1.3E-02) MBq-h/MBq administered
Normalized number of disintegrations, Spleen ([7]; mean ± SD, n = 3): 1.0E-02 ± 4.5E-03 (4.9E-03 – 1.3E-02) MBq-h/MBq administered
Normalized number of disintegrations, Stomach ([7]; mean ± SD, n = 3): 3.2E-03 ± 1.7E-03 (2.1E-03 – 5.2E-03) MBq-h/MBq administered
Normalized number of disintegrations, Testes ([7]; mean ± SD, n = 3): 4.3E-04 ± 1.1E-04 (3.1E-04 – 5.0E-04) MBq-h/MBq administered
Normalized number of disintegrations, Thymus ([7]; mean ± SD, n = 3): 3.8E-05 ± 1.8E-06 (3.7E-05 – 4.1E-05) MBq-h/MBq administered
Normalized number of disintegrations, Thyroid ([7]; mean ± SD, n = 3): 9.4E-04 ± 3.4E-04 (6.3E-04 – 1.3E-03) MBq-h/MBq administered
Normalized number of disintegrations, Urinary bladder contents ([7]; mean ± SD, n = 3): 9.8E-05 ± 3.7E-05 (5.5E-05 – 1.2E-04) MBq-h/MBq administered
time of peak radioactivity in liver ([7]; whole-body PET): 20 min
regional uptake into inflamed areas compared with (R)-[^11C]PK11195 [8]: comparable
organ with highest radiation-absorbed dose [9]: highest in the lung

CCCN(CCC)C(=O)Cc1c(-c2ccc(OC)cc2)nc2c(Cl)cc(Cl)cn12 [CB184]
relative TSPO binding affinity to (R)-PK11195 [1]: 7.9 fold
Ki ([1]; read-out: K i, affinity for TSPO): 0.54 nM
logP [2]: 2.06
abnormalities in the acute toxicity test [10]: absence of any abnormalities
mutagenicity [11]: absence of mutagenicity

CCN(CC)C(=O)Cc1c(-c2ccc(OC)cc2)nn2c(C)cc(C)nc12 [DPA-713]
relative TSPO binding affinity to (R)-PK11195 [1]: 2 fold

CCN(CC)C(=O)Cc1c(-c2ccc(O[11CH3])cc2)nn2c(C)cc(C)nc12 [[^11C]DPA-713]
V T caudate [3]: 3.1 ± 0.6
V T cerebellum [3]: 3.9 ± 0.9
V T frontal cortex [3]: 4.1 ± 0.8
V T parietal cortex [3]: 3.7 ± 0.7
V T putamen [3]: 3.5 ± 0.6
V T thalamus [3]: 4.7 ± 0.9
